According to patent publication US8569243B2, “Sirtuin 6 activating peptides and cosmetic or pharmaceutical composition containing them” (ISP Investments Inc., priority 2010, dated 2013):
Where no end group is shown, it is not given here.

Tests used:
TRF2 protein [1] = experiment: TRF2 immunolabelling in normal human fibroblasts, long-term culture; assay type: cell-based
Protocol: (§1) The goal of this study is to determine the influence of peptide SEQ ID No. 4 on TRF2 protein expression in human skin, a protein specifically associated with telomeres and involved in their maintenance. To do this, specific labeling by immunofluorescence was carried out on normal human keratinocytes (NHK) culture and on normal human fibroblast cultures on a long-term basis.
(§2) Protocol: NHK or normal human fibroblasts in culture are treated once per day with a solution at 10^−6M or at 3×10^−6M of peptide SEQ ID No. 4, between passage 5 and passage 17 (or 12 passages) for fibroblasts and between passage 1 and passage 2 (or 1 passage and 10 days of treatment) for NHK.
(§3) For immunolabelling by anti TRF2 antibodies, the cells are washed and fixed with paraformaldehyde at 3.7% for 10 minutes. The cells are then incubated in the presence of a specific anti TRF2 antibody (Abeam, ref ab13579, polyclonal mouse), and then a secondary suitable antibody, coupled with a fluorescent dye. After mounting in a particular medium, the slides are observed by epifluorescence microscope (Nikon Eclipse E 80i microscope). Fluorescence intensity is quantified by analyzing the image using the Image-Pro Analyser version 5 software.

TRF2 protein [2] = experiment: TRF2 immunolabelling in normal human keratinocytes (NHK), long-term culture; assay type: cell-based
Protocol: as §1, §2, §3

collagen I = experiment: Collagen I immunolabelling in normal human fibroblasts, long-term culture; assay type: cell-based; settings: 10^−6M or 3×10^−6M, passage 5 to 17
Protocol: (§4) The goal of this study is to determine the influence of peptide SEQ ID No. 5 on the expression of dermal extracellular matrix molecules. To do this, the expression of collagens I and III in normal human fibroblasts cultivated on a long-term basis was studied.
(§5) Protocol: Normal human fibroblasts are treated once per day with a solution at 10^−6 M or at 3×10^−6 M of peptide SEQ ID No. 5, between passage 5 and passage 17 (or 12 passages). The cells are then washed and fixed with cold methanol for 5 minutes. After unmasking specific sites, the cells are incubated in the presence of a specific antibody directed against collagen I (TEBU, ref 600-401-103, polyclonal rabbit) or against collagen III (TEBU, ref 600-401-105, polyclonal rabbit), and then incubated in the presence of a suitable secondary antibody, coupled with a fluorescent dye. After mounting in a particular medium, the slides are observed by epifluorescence microscope (Nikon Eclipse E 80i microscope).

sirtuin 6 (SIRT6) [3] = experiment: Sirtuin 6 immunolabelling in NHK after oxidative stress by H2O2; assay type: cell-based, human
Protocol: The goal of this study is to determine the protective effect of peptide SEQ ID No. 5 on keratinocytes during oxidative stress. To do this, the expression of Sirtuin 6 was qualitatively and quantitatively evaluated by specific immunolabelling after oxidative stress by H2O2.
Protocol: The NHK in culture are treated for 24 hours with a solution at 10^−6M or 3×10^−6M of peptide SEQ ID No. 5. The cells are then incubated in the presence of H2O2 at 2 mM, rinsed and then treated for another 24 hours with a solution at 10^−6M or 3×10^−6M of peptide SEQ ID No. 5. A control that was not treated and not subjected to the H2O2 stress (control 0), as well as a control that was not treated but was subjected to the H2O2 stress (control 1) were carried out.
as §3, with “SIRT6” for “TRF2”, “(Abcam,” for “(Abeam,”, “ab62738,” for “ab13579,”

sirtuin 6 (SIRT6) [4] = experiment: Sirtuin 6 immunolabelling (immunofluorescence) in normal human keratinocytes (NHK); assay type: cell-based; settings: for SIRT6 fluorescence versus control conditions: 10^−6M or 3×10^−6 M, all conditions tested (short- and long-term); for sirtuin 6 expression stimulation effect in long-term treatment: passage 3 to passage 5
Protocol: (§6) The object of this study is to determine the influence of peptides SEQ ID No. 5 and SEQ ID No. 7 on Sirtuin 6 expression in human skin. To do this, specific labeling by immunofluorescence was carried out on normal human keratinocytes (NHK) culture and on normal human fibroblast cultures.
(§7) Protocol: NHK or normal human fibroblasts are treated once per day with a solution at 10^−6M or at 3×10^−6M of peptide SEQ ID No. 5 or peptide SEQ ID No. 7.
(§8) Short-term treatment studies for 24, 48 and 72 hours were carried out.
(§9) Long-term treatment studies were also carried out between passage 5 and passage 17 (or 12 passages) for fibroblasts and between passage 3 and passage 5 (or 2 subcultures) for NHK.
as §3, with “SIRT6” for “TRF2”, “ab62738,” for “ab13579,”, “rabbit),” for “mouse),”

normal human fibroblasts = experiment: Comet assay after UVB irradiation of normal human fibroblasts; assay type: cell-based; settings: peptide 3×10^−6 M 24 h before and 24 h after UVB 60 mJ/cm^2
Protocol: The goal of this study is to determine the protective effect of peptide SEQ ID No. 5 on damage caused to the DNA by UV radiation. To do this, a comet assay, that enables damage caused to the DNA at the cellular level to be quantified, was performed.
Protocol: Normal human fibroblasts are cultured for 24 hours with the peptide of sequence SEQ ID No. 5 at a concentration of 10^−6M or 3×10^−6M, and then irradiated with UVB radiation at a rate of 60 mJ/cm^2, and then treated again for 24 hours by the peptide at a concentration of 10^−6M or 3×10^−6M. A control condition is carried out in the absence of treatment. The cells are then detached from their support by the trypsin, then centrifuged at 1200 rotations/min for 10 minutes in order to concentrate and count them.
A defined number of cells (25,000 cells) is then included in a Low Melting agarose gel at 0.75%, and then deposited on a glass slide previously covered with agarose at 1%. The slides are then immersed in a lysis solution for 1½ hours at 4° C., and then in an alkaline solution for 20 min at 4° C. The cells are thus lyzed and the DNA is denatured. […]
Quantification software enables the mean “Tail Moment” (or length of the comet tail) applied to each condition tested to be determined This parameter provides information on the level of DNA damage: the higher this parameter, the greater the DNA degradation.

sirtuin 6 (SIRT6) [5] = experiment: Sirtuin 6 immunolabelling (immunofluorescence) in normal human fibroblasts; assay type: cell-based; settings: for SIRT6 fluorescence versus control conditions: 10^−6M or 3×10^−6 M, all conditions tested (short- and long-term); for sirtuin 6 expression stimulation effect in long-term treatment: passage 5 to passage 17
Protocol: as §6, §7, §8, §9
as §3, with “SIRT6” for “TRF2”, “ab62738,” for “ab13579,”, “rabbit),” for “mouse),”

collagen III = experiment: Collagen III immunolabelling in normal human fibroblasts, long-term culture; assay type: cell-based; settings: 10^−6M or 3×10^−6M, passage 5 to 17
Protocol: as §4, §5

transglutaminase 1 (TG1) = experiment: Epidermal differentiation marker immunolabelling in NHK: transglutaminase 1; assay type: cell-based, human; settings: 10^−6 M or 3×10^−6 M, 2 passages and 11 days of treatment
Protocol: (§10) The goal of this study is to determine the influence of peptide SEQ ID No. 5 on epidermal differentiation. To do this, the expression of the main epidermal differentiation markers, specifically expressed in the keratinocytes of suprabasal layers cultivated on a long-term basis, was studied. The markers tested are transglutaminase 1 and involucrin.
(§11) Protocol: NHK in culture are treated once per day with a solution at 10^−6M or at 3×10^−6M of peptide SEQ ID No. 5, between passage 1 and passage 3 (or 2 passages and 11 days of treatment). The cells are then washed and fixed. After unmasking the specific sites, the cells are incubated in the presence of a specific antibody directed against TG1 (TEBU, ref sc-25786, polyclonal rabbit), a specific antibody directed against involucrin (Novocastra NCL-INV, mouse monoclonal, clone SYS), and then incubated in the presence of a suitable secondary antibody, coupled with a fluorescent dye. For greater ease of observation, the cell nuclei may be counterstained by DAPI (4′,6′ Di Amidino-2-Phenylindole), a fluorescent blue molecule capable of strongly bonding to DNA). After mounting in a particular medium, the slides are observed by epifluorescence microscope (Nikon Eclipse E 80i microscope).

involucrin = experiment: Epidermal differentiation marker immunolabelling in NHK: involucrin; assay type: cell-based, human; settings: 10^−6 M or 3×10^−6 M, 2 passages and 11 days of treatment
Protocol: as §10, §11

[6] = 10^−6 M or 3×10^−6 M, long-term

Row | Substance | TRF2 fluorescence versus control conditions (TRF2 protein [1]; [6]) | maximum increase of the TRF2 fluorescence with relation to the control cells (TRF2 protein [1]; treated for 12 subcultures, 10^−6 M peptide) | TRF2 fluorescence versus control conditions (TRF2 protein [2]; [6]) | maximum increase of the TRF2 fluorescence with relation to the control cells (TRF2 protein [2]; treated for 10 days, 3×10^−6 M peptide) | collagen I fluorescence versus control conditions (collagen I) | increase in SIRT6 expression with relation to control 1 (untreated, H2O2 stress) (sirtuin 6 (SIRT6) [3]; peptide 3×10^−6 M 24 h before and 24 h after H2O2 2 mM) | increase in SIRT6 expression with relation to control 1 (untreated, H2O2 stress) (sirtuin 6 (SIRT6) [3]; peptide 10^−6M 24 h before and 24 h after H2O2 2 mM) | SIRT6 fluorescence versus control conditions (sirtuin 6 (SIRT6) [4]) | sirtuin 6 expression stimulation effect in long-term treatment (sirtuin 6 (SIRT6) [4]) | maximum increase of the SIRT6 fluorescence with relation to the control cells (sirtuin 6 (SIRT6) [4]; treated 72 hours, 3×10^−6M peptide) | reduction of the Tail Moment compared to the control conditions (normal human fibroblasts) | SIRT6 fluorescence versus control conditions (sirtuin 6 (SIRT6) [5]) | sirtuin 6 expression stimulation effect in long-term treatment (sirtuin 6 (SIRT6) [5]) | maximum increase of the SIRT6 fluorescence with relation to the control cells (sirtuin 6 (SIRT6) [5]; treated 24 hours, 10^−6 M peptide) | collagen III fluorescence versus control conditions (collagen III) | transglutaminase 1 fluorescence versus control conditions (transglutaminase 1 (TG1)) | involucrin fluorescence versus control conditions (involucrin)
1 | GAGVSAE [SEQ ID No. 4] | more intense fluorescence | 63% | more intense fluorescence | 39% | – | – | – | – | – | – | – | – | – | – | – | – | –
2 | Gly-Ala-Gly-Val-Ser-Ala-Glu-NH2 (GAGVSAE-NH2) [SEQ ID No. 5] | – | – | – | – | More intense fluorescence | 20% | 16% | more intense fluorescence | maintained for the long term | 35% | 24.8% | more intense fluorescence | maintained for the long term | 47% | More intense fluorescence | More intense fluorescence | More intense fluorescence
3 | Thr-Gln-Asn-Ile-Asp-Glu-Leu-NH2 (TQNIDEL-NH2) [SEQ ID No. 7] | – | – | – | – | – | – | – | more intense fluorescence | maintained for the long term | – | – | more intense fluorescence | maintained for the long term | – | – | – | –
